Test results published in patent US10058587B2, “Peptide composition for cancer treatment by inhibiting TRPV6 calcium channel activity” (priority 2008, dated 2018).
Read-outs that look alike come from different tables or passages of the source. Bridges are numbered along the chain shown (N, C = ends). Where no end group is shown, it is not given here.

Legend:
mealworm larvae [1] = assay: Mealworm larva paralytic bioassay; format: in vivo; details: for larvae paralyzed: 20 nmole/100 mg mass
Excerpt: To show this, the mealworm larva paralytic bioassay reported previously (U.S. Pat. No. 7,119,168) was used. Animals from a mealworm colony were arbitrarily selected and placed in groups (treatment and control). The animals were weighed to allow calculation of equivalent doses. The treatment was with either SorC13 or SorC27 dissolved in buffered insect Ringer's solution. The control was injection was an equivalent volume of insect Ringer's (NaCl; 10.40 g; KCl, 0.32 g; CaCl2, 0.48 g; NaHCO3, 0.32 g dissolved in 1 L of Millipore sterile water, pH 7.4). Peptide formulations were: SorC27 solutions, prepared at 1.0 mg/100 uL insect Ringer's (10 ug/uL, […], MW=2957); and SorC13, prepared at 0.5 mg/100 uL (5 ug/uL, […], MW=1566). The doses were 50 ug SorC27 per 100 mg of animal mass and 25 ug SorC13 per 100 mg of animal mass. Peptide solutions and control saline were injected dorsally at the fourth segment from the head, just under the integumen. Animals were gently ‘tail tweaked’ with forceps to trigger the escape reflex reaction and scored on time-to-effect, duration of effect and intensity of effect.

pI = format: physicochemical; details: measured
[2] = Storage stability of solid and aqueous solution; format: physicochemical
Description: Additionally, the peptides have greater shelf-life stability and solution stability due to the presence of fewer sensitive disulfide bonds (soricidin has 3 disulfide bonds). The peptides of the invention optionally have no disulfide bonds. An absence of disulfide bonds provides a very long shelflife during storage under minimal refrigeration or at room temperature as a solid. Additionally when the peptides of the invention with no disulfide bonds are dissolved in water, cleavage of disulfide bonds cannot occur. […] The formation of inter-peptide S—S bonds also results in precipitation of soricidin. The peptides of the invention, such as SorC13 and SorC27, are typically stable in aqueous solution at 8° C. for at least 3 weeks with no change in purity as measured by HPLC.
“Very stable” in the above table means that there was no observable degradation of the solid peptides over 6 months. As a solution in sterile water, the peptides are typically stable for at least 3 weeks at 8° C. and at −20° C., are expected to be stable more than 1 year.

[3] = Degradation rate in rat plasma (HPLC); format: in vitro ADME
Description: (§1) Rat plasma was obtained from blood taken from sacrificed rats (Sprague-Dawley) and placed into heparinized glass vials to prevent clotting. Whole blood was centrifuged at 8000×g for 5 minutes to spin down the cells leaving the plasma as supernatant. Human whole blood samples from healthy humans were taken in lithium-heparinized vacuum tubes. The samples were placed into 2.0 mL microcentrifuge tubes and centrifuged at 8000×g for 5 min. The plasma was carefully separated from red blood cells and used immediately.
(§2) Determination of degradation rate of the C-peptides was done by measuring, with the HPLC protocol, the amount of either SorC13 or SorC27 in dosed plasma samples, after time. Sample tubes (500 uL) containing 2 uL of 2 mM Pefabloc were previously prepared for sample delivery SorC13 (1.0 mg) or SorC27 (2.0 mg) were dissolved in 1.0 mL of fresh plasma (37° C.) and placed in an incubating water bath at 37° C. A sample (100 uL) was taken immediately and quenched in sample tubes containing 2 uL of 2 mM Pefabloc, mixed vigorously and immediately frozen at −80° C. This initial sample represented time zero for the run. At successive time intervals of 5 minutes, 100 uL samples were withdrawn, quenched in Pefabloc, mixed, and frozen at −80° C. until analysis.
(§3) The rat plasma degradation rate was determined for the plasma from three different rats, while the rate of degradation in human plasma used six separate plasma samples. The data used were the means (±SEM) and were fitted to a simple one-phase exponential decay model to determine the half-life of the two peptides. This also allowed the calculation of a static degradation rate. FIG. 11 is illustrative of the rate at which SorC27 was degraded in human plasma.

[4] = Degradation rate in human plasma (HPLC); format: in vitro ADME
Description: as §1, §2, §3

mealworm larvae [5] = assay: Mealworm larva paralytic bioassay; format: in vivo
human TRPV6b = target: T1, human TRPV6b (Homo sapiens, UniProt Q9H1D0); assay: Whole-cell patch clamp of calcium store operated current (ISOC) through TRPV6 in transfected LnCaP cells; format: cell-based
T1 construct: expressed in transfected cells; host or cells: LnCaP (ATCC CRL-1740), human lymph node prostate cancer cells
T1 sequence (Q9H1D0 41-765 limits assumed): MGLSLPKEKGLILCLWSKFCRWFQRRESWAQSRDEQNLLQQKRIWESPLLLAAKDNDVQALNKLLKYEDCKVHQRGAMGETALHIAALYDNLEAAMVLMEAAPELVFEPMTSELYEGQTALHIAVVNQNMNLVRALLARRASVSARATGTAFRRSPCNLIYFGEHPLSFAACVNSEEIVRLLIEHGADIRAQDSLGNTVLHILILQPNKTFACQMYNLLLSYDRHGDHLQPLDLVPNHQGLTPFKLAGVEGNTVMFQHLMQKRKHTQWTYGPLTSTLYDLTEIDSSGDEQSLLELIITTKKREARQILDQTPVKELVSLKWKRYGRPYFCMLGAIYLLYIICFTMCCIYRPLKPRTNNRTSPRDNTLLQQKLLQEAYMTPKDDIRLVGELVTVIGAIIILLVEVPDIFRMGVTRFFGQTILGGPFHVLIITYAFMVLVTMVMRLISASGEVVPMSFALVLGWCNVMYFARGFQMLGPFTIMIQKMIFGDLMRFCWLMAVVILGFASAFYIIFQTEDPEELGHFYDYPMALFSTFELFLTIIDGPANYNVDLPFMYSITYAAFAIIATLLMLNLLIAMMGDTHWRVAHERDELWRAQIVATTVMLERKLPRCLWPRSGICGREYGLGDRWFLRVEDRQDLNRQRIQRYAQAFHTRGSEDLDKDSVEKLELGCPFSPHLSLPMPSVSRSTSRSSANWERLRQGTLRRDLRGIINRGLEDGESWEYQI
Description: An expression vector (pCAGS-IRES-hTRPV6b) (Bodding et al. 2003) containing the nucleotide code for human TRPV6b was transfected into and expressed by human lymph node prostate cancer (LnCaP, ATCC CRL-1740). Patch clamping with whole-cell current acquisition was used to measure the calcium current through this channel. Cells were treated and calcium store operated current (ISOC) was measured with either SorC13 (n=90) or SorC27 (n=30) in a closed-circuit perfusion for 3 min at each of cumulative concentrations of 0 (baseline), 100 nM, 500 nM 1 uM, 30 uM and 100 uM. Washout perfusion was done at 2 mL/min for 3 min. […] Further, both C-peptides are very strong inhibitors of calcium current through the TRPV6 channel with inhibition constants in the 100 nM range.

[6] = Physiological effects after i.v. injection into CD1 mice (blood pressure, heart rate, neurological/behavioral); format: in vivo
Description: (§4) After in vivo i.v. injection into CD1 mice, SorC13 caused a small spike (approximately 25%) in blood pressure in the first 15 min which disappeared by 1 hour.

[7] = Single dose acute intravenous bolus toxicity study with 5-day observation; format: in vivo, CD-1 mice
Description: A single dose acute intravenous bolus injection toxicity study followed by a 5-day observation period in CD-1 mice was performed as described below. Three doses of each of SorC13 and SorC27 were used (10, 100 and 500 mg/Kg). Daily cage-side exams for 5 days with hourly exams for the first 4 hrs post injection. As part of the analysis the following assessments were made: body weights prior to dosing and at termination; all animals were necropsied (including preparation of bone marrow smears); organ weights were taken of all animals.
as §4

[8] = Repeated dose toxicity study; format: in vivo, NOD/SCID mice; details: 400 mg/kg, daily i.p. injection for 12 days
Description: In order to investigate repeated dose toxicity, SorC27 at 400 mg/kg formulated in saline was injected (i.p.) into NOD/SCID mice every day for 12 days. The animals were observed cage-side each day and examined at the end of the experimental period.

[9] = Tissue distribution of Cy5.5-labeled peptides by optical imaging; format: in vivo, CD1 mice; details: Cy5.5-tagged peptide
Excerpt: SorC13 and SorC27 were labeled with the near-infrared probe, Cy5.5. SorC13 was labeled at lysine-1 and lysine-8 with the infrared fluorescent probe cy5.5 through reaction with Cy5.5 NHS ester-activated process. SorC27 was labeled at the single cysteine thiol with Cy5.5 maleamide-activated reaction. The labeled peptides were purified with a combination of size exclusion chromatography and HPLC. The label, Cy5.5, fluoresces in the infra-red region after excitation with a scanning laser. The low energy laser is able to penetrate the animal to about 1 cm and, thus, by scanning prone and supine positions, the presence of the tagged peptides can be quantified in three dimensions.
Cy5.5-labeled peptides were intravenously injected into CD1 mice (4 for each compound) at 100 ug per animal in 100 uL, and animals were imaged live using an optical imaging system, Optix eXplorer (GE Healthcare Systems) at different time points (30 min, 90 min, 4 h). […] The bio-distribution of the labeled peptides in different organs and tissues were visualized and relatively quantified by optical imaging analysis. This protocol allows for visualization of the location of the labeled peptides and how the location changes over time. […] Nodes that accumulated the labeled peptides are indicated by line 1 (superfacial cervical nodes), line 4 (axillary nodes), line 5 (brachial nodes), line 8 (mesenteric nodes) and line 9 (inguinal nodes). FIGS. 8, 9 and 10 show the amounts of labeled peptides in various organs ex vivo.

[10] = Clearance route in iv mice; details: i.v.
[11] = single i.v. 10, 100 and 500 mg/kg

DCSQDCAACSILARPAELNTETCILECEGKLSSNDTEGGLCKEFLHPSKVDLPR (disulfide 2-23, 6-27, 9-41) [Sor54, soricidin, reference compound]
larvae paralyzed (mealworm larvae [1]; time 0 min): 4/4
larvae paralyzed (mealworm larvae [1]; time 2 min): 4/4
larvae paralyzed (mealworm larvae [1]; time 30 min): 4/4
paralysis in the mealworm larva model (mealworm larvae [1]; molar equivalent doses (20 nanomole/100 mg larva)): profoundly paralytic
pI (pI): 4.3 (measured)
Stability in aqueous solution @ −20° C. [2]: stable
Stability solid @ Room Temp. [2]: unstable
Stability solid @ −20° C. [2]: stable
binding to plasma proteins ([3]; rat plasma): binds to
half-life ([3]; rat plasma): > 1800 min
binding to plasma proteins ([4]; human plasma): binds to
half-life ([4]; human plasma): > 1800 min
Physiol. effects in vivo (mealworm larvae); 5 mg/kg (mealworm larvae [5]): Paralytic
solubility (Solubility (aqueous)): < 20 mg/mL

KEFLHPSKVDLPR [SorC13, KEFLHPSKVDLPR]
IC50 (human TRPV6b): 100 nM
Kd (human TRPV6b): 100 nM
Stability in aqueous solution @ −20° C. [2]: Very stable
Stability solid @ Room Temp. [2]: Very stable
Stability solid @ −20° C. [2]: Very stable
neurological/behavioral changes ([6]; i.v., over 72 hours): no neurological/behavioral changes
spike in blood pressure in the first 15 min ([6]; i.v., disappeared by 1 hour): approximately 25%
BP spike @ 15 min ([6]; mice @ 5 mg/kg, stabilizes by 1 hr): 15% BP spike, @
half-life ([3]; Sprague-Dawley, rat, plasma, 37° C.): 58 min
binding to plasma proteins ([3]; rat plasma): doesn't
binding to plasma proteins ([4]; human plasma): doesn't
half-life ([4]; human, plasma, 37° C.): 56.6 min
Maximum Tolerated Dose in CD-1 mice by single i.v. dose ([7]; 10, 100 and 500 mg/kg doses): No toxic effects
adverse events over 5-day post-injection observation period [7, 11]: no adverse events
necropsy changes in major organ systems [7, 11]: no significant changes in all major organ systems
Repeated dose in NOD/SCID mice: body weight [8]: No loss of body
Repeated dose in NOD/SCID mice: toxic effects [8]: controls, no toxic
detectable in tissues after perfusion ([9]; 24 hours): still detectable
tissue localization ([9]; i.v. 100 ug): localize predominantly in lymph nodes, lung, liver and kidney
solubility (Solubility (aqueous); aqueous): > 200 mg/mL
Clearance route in iv mice @ 5 mg/kg [10]: Rapid via kidney.
